Measured values published in PubChem BioAssay AID256 (DTP/NCI, 2004).
Several values for one entry are separate records, joined by “and”; a condition that tells them apart may be missing. Identical values can stand only once. Toxic doses and inconclusive results are not listed. The calls were made as follows: active = survival T/C of 150% or more; inactive = T/C below 125% in these data.

Tested on: CD2F1 mice, L1210 leukemia ip, survival T/C
Experiment: NCI In Vivo Anticancer Drug Screen. Data for tumor model L1210 Leukemia (intraperitoneal) in CD2F1 (CDF1) mice
Details: higher = longer survival
Procedure, shortened: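 Read-out first: treated-group measurement over vehicle-control measurement, expressed as a ratio. Animals bore a transplanted tumor line and were dosed with compound or vehicle.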

[1] = endpoint: mean survival time, dose: 25.0 mg/kg/injection, schedule: Q04DX003 (ip), vehicle: saline with Tween-80
[2] = endpoint: mean survival time, dose: 50.0 mg/kg/injection, schedule: Q01DX009 (ip), vehicle: saline with Tween-80
[3] = endpoint: mean survival time, dose: 100.0 mg/kg/injection, schedule: Q01DX009 (ip), vehicle: saline with Tween-80
[4] = endpoint: mean survival time, dose: 200.0 mg/kg/injection, schedule: Q01DX009 (ip), vehicle: saline with Tween-80
[5] = endpoint: mean survival time, dose: 100.0 mg/kg/injection, schedule: Q04DX003 (ip), vehicle: saline with Tween-80
[6] = endpoint: mean survival time, dose: 200.0 mg/kg/injection, schedule: Q04DX003 (ip), vehicle: saline with Tween-80

Measured: T/C

CN(C)c1ccc(/C=N/Nc2ncnc(Cl)c2N)cc1
inactive: endpoint: mean survival time, dose: 100.0 mg/kg/injection, schedule: Q01DX001 (ip), vehicle: carboxymethylcellulose (CMC) 98 % of control | endpoint: mean survival time, dose: 200.0 mg/kg/injection, schedule: Q01DX001 (ip), vehicle: carboxymethylcellulose (CMC) 91 % of control | endpoint: mean survival time, dose: 400.0 mg/kg/injection, schedule: Q01DX001 (ip), vehicle: carboxymethylcellulose (CMC) 95 % of control

COC(=O)CSC#N
inactive: endpoint: mean survival time, dose: 10.0 mg/kg/injection, schedule: Q01DX001 (ip), vehicle: saline 111 % of control | endpoint: mean survival time, dose: 20.0 mg/kg/injection, schedule: Q01DX001 (ip), vehicle: saline 107 % of control

COc1cc(O)c2c(O)c3c(c4c2c1[C@]1(C4)C(C)=CCCC1(C)C)[C@H](O)[C@@]1(O)CC(=O)C(C(N)=O)=C(O)[C@@]1(O)C3=O
inactive: endpoint: mean survival time, dose: 1.56 mg/kg/injection, schedule: Q01DX009 (ip), vehicle: saline with Tween-80 96 % of control and 101 % of control | endpoint: mean survival time, dose: 3.13 mg/kg/injection, schedule: Q01DX009 (ip), vehicle: saline with Tween-80 98 % of control | endpoint: mean survival time, dose: 6.25 mg/kg/injection, schedule: Q01DX009 (ip), vehicle: saline with Tween-80 104 % of control | endpoint: mean survival time, dose: 12.5 mg/kg/injection, schedule: Q01DX009 (ip), vehicle: saline with Tween-80 114 % of control | endpoint: mean survival time, dose: 16.5 mg/kg/injection, schedule: Q04DX003 (ip), vehicle: saline with Tween-80 98 % of control | endpoint: mean survival time, dose: 25.0 mg/kg/injection, schedule: Q01DX009 (ip), vehicle: saline with Tween-80 119 % of control | [1] 102 % of control | endpoint: mean survival time, dose: 37.5 mg/kg/injection, schedule: Q04DX003 (ip), vehicle: saline with Tween-80 111 % of control | [2] 90 % of control

CCC(C)C(C(=O)OCCN(C)C)c1ccccc1 (stereo not drawn)
inactive: [2] 100 % of control | [3] 97 % of control | [4] 103 % of control

Cc1cc(-c2ccccc2)cc(=O)[nH]1
inactive: endpoint: mean survival time, dose: 100.0 mg/kg/injection, schedule: Q01DX001 (ip), vehicle: other 92 % of control | endpoint: mean survival time, dose: 200.0 mg/kg/injection, schedule: Q01DX001 (ip), vehicle: other 92 % of control | endpoint: mean survival time, dose: 400.0 mg/kg/injection, schedule: Q01DX001 (ip), vehicle: other 91 % of control

CCOC(=O)C(Cc1ccc(CC(NC(C)=O)(C(=O)OCC)C(=O)OCC)cc1)(NC(C)=O)C(=O)OCC
inactive: endpoint: mean survival time, dose: 12.5 mg/kg/injection, schedule: Q01DX009 (ip), vehicle: other 96 % of control | endpoint: mean survival time, dose: 25.0 mg/kg/injection, schedule: Q01DX009 (ip), vehicle: other 94 % of control | endpoint: mean survival time, dose: 50.0 mg/kg/injection, schedule: Q01DX009 (ip), vehicle: other 97 % of control | endpoint: mean survival time, dose: 100.0 mg/kg/injection, schedule: Q01DX009 (ip), vehicle: other 91 % of control | endpoint: mean survival time, dose: 200.0 mg/kg/injection, schedule: Q01DX009 (ip), vehicle: other 92 % of control

CCC[CH2][Pb]([Cl])([CH2]CCC)[CH2]CCC
inactive: endpoint: mean survival time, dose: 1.5 mg/kg/injection, schedule: Q01DX009 (ip), vehicle: saline with Tween-80 96 % of control | endpoint: mean survival time, dose: 3.0 mg/kg/injection, schedule: Q01DX009 (ip), vehicle: saline with Tween-80 96 % of control | endpoint: mean survival time, dose: 6.0 mg/kg/injection, schedule: Q01DX009 (ip), vehicle: saline with Tween-80 93 % of control | endpoint: mean survival time, dose: 6.25 mg/kg/injection, schedule: Q04DX003 (ip), vehicle: saline with Tween-80 93 % of control | endpoint: mean survival time, dose: 12.5 mg/kg/injection, schedule: Q04DX003 (ip), vehicle: saline with Tween-80 87 % of control | [1] 93 % of control

O=C1c2ccccc2C(=O)c2c1cn1c2Cc2ccccc2C1
inactive: endpoint: median survival time, dose: 9.0 mg/kg/injection, schedule: Q01DX005 (ip), vehicle: Klucel (hydroxypropylcellulose) (HPC) 106 % of control | endpoint: median survival time, dose: 9.37 mg/kg/injection, schedule: Q01DX005 (ip), vehicle: other 106 % of control and 107 % of control | endpoint: median survival time, dose: 12.5 mg/kg/injection, schedule: Q01DX005 (ip), vehicle: Klucel (hydroxypropylcellulose) (HPC) 110 % of control | endpoint: median survival time, dose: 15.0 mg/kg/injection, schedule: Q01DX005 (ip), vehicle: Klucel (hydroxypropylcellulose) (HPC) 109 % of control | endpoint: median survival time, dose: 18.75 mg/kg/injection, schedule: Q01DX005 (ip), vehicle: other 114 % of control and 103 % of control | endpoint: median survival time, dose: 25.0 mg/kg/injection, schedule: Q01DX005 (ip), vehicle: Klucel (hydroxypropylcellulose) (HPC) 107 % of control | endpoint: median survival time, dose: 37.5 mg/kg/injection, schedule: Q01DX005 (ip), vehicle: other 114 % of control and 111 % of control | endpoint: median survival time, dose: 41.66 mg/kg/injection, schedule: Q01DX005 (ip), vehicle: Klucel (hydroxypropylcellulose) (HPC) 114 % of control | endpoint: median survival time, dose: 50.0 mg/kg/injection, schedule: Q01DX005 (ip), vehicle: Klucel (hydroxypropylcellulose) (HPC) 108 % of control | endpoint: median survival time, dose: 69.44 mg/kg/injection, schedule: Q01DX005 (ip), vehicle: Klucel (hydroxypropylcellulose) (HPC) 106 % of control | endpoint: median survival time, dose: 75.0 mg/kg/injection, schedule: Q01DX005 (ip), vehicle: other 114 % of control and 98 % of control | endpoint: median survival time, dose: 100.0 mg/kg/injection, schedule: Q01DX005 (ip), vehicle: Klucel (hydroxypropylcellulose) (HPC) 122 % of control | endpoint: median survival time, dose: 150.0 mg/kg/injection, schedule: Q01DX005 (ip), vehicle: other 110 % of control | endpoint: median survival time, dose: 200.0 mg/kg/injection, schedule: Q01DX005 (ip), vehicle: Klucel (hydroxypropylcellulose) (HPC) 107 % of control

CO[C@@]12[C@@H]3N[C@@H]3CN1C1=C(C(=O)C(NCCN(C)C)=C(C)C1=O)[C@@H]2COC(N)=O
inactive: endpoint: mean survival time, dose: 1.5 mg/kg/injection, schedule: Q01DX001 (ip), vehicle: water 106 % of control | endpoint: mean survival time, dose: 3.0 mg/kg/injection, schedule: Q01DX001 (ip), vehicle: distilled water + Tween-80 116 % of control | endpoint: mean survival time, dose: 3.0 mg/kg/injection, schedule: Q01DX001 (ip), vehicle: water 106 % of control | endpoint: mean survival time, dose: 6.0 mg/kg/injection, schedule: Q01DX001 (ip), vehicle: water 116 % of control | endpoint: mean survival time, dose: 24.0 mg/kg/injection, schedule: Q01DX001 (ip), vehicle: distilled water + Tween-80 96 % of control | endpoint: mean survival time, dose: 24.0 mg/kg/injection, schedule: Q01DX001 (ip), vehicle: water 93 % of control

Cc1ccc(CNc2cc(C)ccn2)cc1
inactive: [5] 100 % of control | [6] 91 % of control

CN(C)C(=S)NNC(=O)c1ccc(Cl)cc1
inactive: endpoint: mean survival time, dose: 25.0 mg/kg/injection, schedule: Q01DX001 (ip), vehicle: saline with Tween-80 98 % of control

O=C(CCCCC(=O)N/N=C/c1cccc([N+](=O)[O-])c1)N/N=C/c1cccc([N+](=O)[O-])c1
inactive: [3] 87 % of control | [4] 87 % of control | endpoint: mean survival time, dose: 400.0 mg/kg/injection, schedule: Q01DX009 (ip), vehicle: saline with Tween-80 90 % of control

Nc1nc(N)c(NC=O)c(N)n1
inactive: endpoint: mean survival time, dose: 12.5 mg/kg/injection, schedule: Q01DX009 (ip), vehicle: water 101 % of control | endpoint: mean survival time, dose: 25.0 mg/kg/injection, schedule: Q01DX009 (ip), vehicle: water 101 % of control | endpoint: mean survival time, dose: 50.0 mg/kg/injection, schedule: Q01DX009 (ip), vehicle: water 106 % of control | endpoint: mean survival time, dose: 100.0 mg/kg/injection, schedule: Q01DX009 (ip), vehicle: water 103 % of control | endpoint: mean survival time, dose: 200.0 mg/kg/injection, schedule: Q01DX009 (ip), vehicle: water 103 % of control

ClC(Cl)(Cl)c1ccc(C(SCc2ccccc2)SCc2ccccc2)cc1
inactive: endpoint: mean survival time, dose: 100.0 mg/kg/injection, schedule: Q01DX001 (ip), vehicle: saline with Tween-80 89 % of control | endpoint: mean survival time, dose: 200.0 mg/kg/injection, schedule: Q01DX001 (ip), vehicle: saline with Tween-80 89 % of control | endpoint: mean survival time, dose: 400.0 mg/kg/injection, schedule: Q01DX001 (ip), vehicle: saline with Tween-80 97 % of control

C=C1CCCCC1C(C(=O)O)(c1ccccc1)c1ccccc1 (stereo not drawn)
inactive: [5] 102 % of control | [6] 102 % of control | endpoint: mean survival time, dose: 400.0 mg/kg/injection, schedule: Q04DX003 (ip), vehicle: saline with Tween-80 100 % of control
